# Measured values published in US20250032651A1, “[177LU] LUTETIUM-PSMA I&T COMPOSITION AND DOSIMETRY, KIT, METHOD OF MAKING, AND METHOD OF USING THEREOF” (Curium US LLC, priority 2022, published 2025).
# Experiment: Biodistribution: SPECT/CT time-activity curves (fraction of injected activity), whole-body half-lives
# Assay type: in vivo, human
# Details: Cycle 1
# Experimental: This Example presents the biodistribution, dosimetry, and pharmacokinetics (PK) results of a PK/Dosimetry sub-study performed as part of a Phase III trial. Twenty-seven (27) patients were administered a target activity of 7.4±10% GBq of ^177Lu-PSMA-I&T and underwent single photon emission computed tomography (SPECT)/computed tomography (CT) imaging at four timepoints (4 h, 24 h, 48 h, and 168 h). Image data was analysed to compute time-activity curves (TACs) and subsequently time-integrated activity coefficients (TIACs) in each organ of interest and in organs showing appreciable and meaningful ^177Lu-PSMA-I&T activity. Organ Level Internal Dose Assessment (OLINDA 2.2.3) was used to compute organ and whole body absorbed radiation doses for each patient.
# All participating sites underwent a rigorous site setup process during which all dose calibrators, scanners, and gamma counters used in the sub-study were calibrated. Sites were allowed to enroll patients in the sub-study only after the completion and approval of all site setup processes by Invicro. Patients underwent SPECT/CT imaging, with anatomical coverage typically extending from the salivary glands to the pelvis, following the administration of a targeted 7.4±10% GBq of ^177Lu-PSMA-I&T at cycle 1. SPECT/CT imaging was performed at four timepoints: 4 h, 24 h, 48 h, and 168 h post-injection. Additionally, a subset of patients imaged at Cycle 1 (16 out of 27), were also imaged at Cycle 3 (Table 2).
# Volume of interest (VOI) (kidneys, bladder, liver, lumbar vertebrae L2-L4, lacrimal glands, salivary glands [parotid and submandibular glands], and whole body) were delineated on each dataset by a trained image analyst. […] Organs were segmented either by drawing the entire contour of the organ, or by placing a sphere in a representative region of the organ and then multiplying by the organ's effective mass (based on patient's height and weight). Segmentation methods for each organ are specified in Table 3 and were consistently applied to each patient.
# Clearance of the radiopharmaceutical was derived from a data-appropriate fit of each organ's TAC. Depending on the TAC's shape, the data was fitted with the sum of one, two, or three exponentials, or using a rise and fall model. Fitting was performed with in-house Python software. TIACs were calculated through analytical integration of the curve fit extrapolated to infinity. […] A whole-body TAC was derived from delineating the imaged body. The remainder activity was determined by subtracting the cumulative organ TIACs from the whole body TIAC.
# Note: the time-activity curves in these figures are not decay-corrected to time of injection.
# The whole-body time-activity curves were fitted with bi-exponential equation and the two components were used for the distribution and elimination half-life.
# [1] = bi-exponential fit of whole-body time-activity curves, excluding patient 42-030
structure (smiles),measurement,setting,value
"O=C([O-])CC[C@H](NC(=O)N[C@@H](CCCCNC(=O)CCCCCCC(=O)NCCCC[C@@H](NC(=O)[C@@H](Cc1ccccc1)NC(=O)[C@@H](Cc1ccc(O)c(I)c1)NC(=O)CC[C@H](C(=O)[O-])N1CCN(CC(=O)[O-])CCN(CC(=O)[O-])CCN(CC(=O)[O-])CC1)C(=O)[O-])C(=O)[O-])C(=O)[O-].[177Lu+3].[H+].[H+].[H+].[H+].[H+] [^177Lu-PSMA I&T, (3S,7S,26R,29R,32R,37R)-29-benzyl-32-(4-hydroxy-3-iodobenzyl)-5,13,20,28,31,34-hexaoxo-37-(4,7,10-tris(carboxymethyl)-1,4,7,10-tetraazacyclododecan-1-yl)-4,6,12,21,27,30,33-heptaazaheptatriacontane-1,3,7,26,37-pentacarboxylic acid; lutetium-177 (III)]",whole body mean activity retention at 4 h,averaged across patients excluding 42-030,44%±13%
same,whole-body distribution half-life (mean),[1],2.16 ± 1.30 h
same,whole-body elimination half-life (mean),[1],46.29 ± 23.83 h
same,"whole body activity retention at 4 h, max",excluding 42-030,78%
same,"whole body activity retention at 4 h, min",excluding 42-030,24%
same,route of excretion,visible accumulation in the urinary bladder,primarily excreted through the urine
